According to ChEMBL document CHEMBL3881525, “Analogs of dehydrophenylahistins and their therapeutic use” (2007):
The source made the active and inactive calls. The calls are words filed in the database; no cut-off is given here.

What was measured:
[1] = Toxicity in mouse allografted with mouse N202 tumor spheroids expressing H2B-GFP assessed as effect on tumor surrounding vasculature in the dorsal skin fold at 10 mg/kg, iv administered on day 13 as infusion for 5 mins measured on day 15; format: organism-based; details: in vivo
[2] = target: T1, Tubulin (Homo sapiens) (UniProt P68371+Q9H4B7+P0DPH7+P68366+Q13509+Q71U36+P04350+Q3ZCM7+P07437+P68363+Q9BQE3+Q6PEY2+Q13885+Q9BVA1+Q9BUF5); assay: Induction of microtubule instability in human MCF7 cells assessed as time spent for attenuation at IC50 for mitotic block measured after 20 hrs by immunofluorescence analysis; format: cell-based
[3] = target: RAF proto-oncogene serine/threonine-protein kinase (Homo sapiens) (UniProt P04049); details: 10 uM
Sequence of RAF proto-oncogene serine/threonine-protein kinase (Homo sapiens) (P04049 whole entry, the tested form may be a part): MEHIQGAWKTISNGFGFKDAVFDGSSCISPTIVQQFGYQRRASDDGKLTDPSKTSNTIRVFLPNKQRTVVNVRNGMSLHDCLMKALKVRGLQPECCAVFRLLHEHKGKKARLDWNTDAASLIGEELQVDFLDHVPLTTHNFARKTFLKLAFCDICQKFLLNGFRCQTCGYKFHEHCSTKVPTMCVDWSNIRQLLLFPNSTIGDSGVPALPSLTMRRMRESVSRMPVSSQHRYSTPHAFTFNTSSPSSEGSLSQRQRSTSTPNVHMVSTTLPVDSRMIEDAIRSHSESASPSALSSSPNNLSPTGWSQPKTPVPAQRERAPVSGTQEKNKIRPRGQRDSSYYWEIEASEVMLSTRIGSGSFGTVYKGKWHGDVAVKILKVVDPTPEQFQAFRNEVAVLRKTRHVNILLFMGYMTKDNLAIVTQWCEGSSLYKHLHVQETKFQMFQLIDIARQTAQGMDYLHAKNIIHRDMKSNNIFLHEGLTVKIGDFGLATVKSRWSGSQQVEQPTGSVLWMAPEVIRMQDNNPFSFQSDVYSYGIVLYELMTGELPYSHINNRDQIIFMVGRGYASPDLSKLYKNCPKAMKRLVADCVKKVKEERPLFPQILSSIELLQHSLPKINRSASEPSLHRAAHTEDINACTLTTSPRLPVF
Description: Inhibition of human c-RAF at 10 uM in presence of ATP

[4] = Toxicity in mouse allografted with mouse N202 tumor spheroids expressing H2B-GFP at 10 mg/kg, iv administered on day 12 as infusion for 5 mins; format: organism-based; details: in vivo
[5] = target: T1, Tubulin (Homo sapiens); assay: Induction of microtubule instability in human MCF7 cells assessed as time spent for growth at IC50 for mitotic block measured after 20 hrs by immunofluorescence analysis; format: cell-based
[6] = target: T1, Tubulin (Homo sapiens); assay: Induction of microtubule dynamic instability in human MCF7 cells at IC50 for mitotic block measured after 20 hrs by immunofluorescence analysis; format: cell-based
[7] = Antitumor activity against human MCF7 cells xenografted in nude mouse assessed as tumor growth inhibition at 7.5 mg/kg, ip qd administered every third day for 5 days in presence of CPT-11 relative to control; format: functional; details: 120 h, read-out: TGI
[8] = Cytotoxicity against human HT-29 cells assessed as reduction in cell viability measured after 48 hrs by resazurin dye-based fluorometric analysis relative to control; format: functional
[9] = system: Rattus norvegicus; assay: Effect on blood flow in rat kidney at 15 mg/kg, ip measured after 1 hr by [125I]iodoantipyrine based method relative to vehicle control; format: ADME, organism-based; details: in vivo
[10] = Antitumor activity against human HT-29 cells xenografted in nude mouse assessed as tumor growth inhibition at 7.5 mg/kg, ip administered every third day for 5 days relative to control; format: functional; details: HT-29, ip, 120 h, read-out: TGI
[11] = target: T1, Tubulin (Homo sapiens); assay: Induction of microtubule instability in human MCF7 cells assessed as time spent for shortening at IC50 for mitotic block measured after 20 hrs by immunofluorescence analysis; format: cell-based
[12] = system: Rattus norvegicus; assay: Effect on blood flow in rat skin at 15 mg/kg, ip measured after 1 hr by [125I]iodoantipyrine based method relative to vehicle control; format: ADME, organism-based; details: in vivo
[13] = target: Tubulin (Bos taurus) (UniProt Q6B856+Q862L2+Q862F3); details: 1.25 to 5 uM

## CC(C)(C)c1[nH]cnc1/C=c1\[nH]c(=O)/c(=C/c2ccccc2)[nH]c1=O [PLINABULIN]
[1]
  Activity: Non-Toxic
[2]
  TIME: 0.0102 h
[3]
  inhibition: > 50%
[4]
  Activity: Non-Toxic
[5]
  Activity: 33%
  TIME: 0.005 h
[6]
  Activity: 10.6 um/min
[7]
  inhibition in vivo at 7.5 mg/kg: 26 to 81%
[8]
  inhibition (INH): 82.5 - 88%
[9]
  Activity: Non-Toxic
[10]
  inhibition in vivo at 7.5 mg/kg: 9%
[11]
  Activity: 20.9%
  TIME: 0.00367 h
[12]
  Activity: Non-Toxic
[13]
  inhibition: Active
